Drawing on patent US9856279B2 (AGIOS PHARMACEUTICALS, INC, priority 2011, dated 2018), this text covers IC50 for 17 molecules.

Where two headings read alike, the source gives them in different places.

For experiment [1], the system named is U87MG cells. The experiment is described as follows: Cellular assay for IDH1m inhibitors: inhibition of 2-HG production (LC-MS, 48 hours) in U87MG cells. Format: cell-based. The settings on record: Homo sapiens, U-87 MG. In outline:
(§1)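 Each cell line is plated at 5000 cells/well in DMEM with 10% FBS and left overnight at 37 °C. Test compounds are then added for 48 h, after which 2-HG in the medium is determined by LC-MS; IC50 reflects 50% reduction compared with control.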

Experiment [2] deals with HT1080 cells. As to the kind of experiment: Cellular assay for IDH1m inhibitors: inhibition of 2-HG production (LC-MS, 48 hours) in HT1080 cells. Format: cell-based. The settings on record: Homo sapiens. In outline:
as §1

Experiment [3] addresses IDH1 R132H (Homo sapiens, UniProt O75874, R132H). As to the kind of experiment: Assay for IDH1 R132H inhibitors (NADPH/aKG, resazurin detection). Type of experiment: biochemical. The settings on record: enzyme assay of Example 12; read-out: IDH1R132H IC50. The method in brief: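 Read-out is resorufin fluorescence (Ex544/Em590) 5 min after adding a 30 μM resazurin detection mix. Before that, mutant enzyme (0.2 μg/ml in its mix) ran 50 min at room temperature with compound, 8 uM NADPH and 2 mM aKG (mix levels) in Tris pH 7.5 with NaCl, MgCl2, BSA.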

Where [4] appears, read: inhibition of 2-HG production, U87R132H cells, read-out: U87R132H IC50.
The mark [5] stands for this setting: HT-1080, inhibition of 2-HG production, HT1080 cells, read-out: HT1080 IC50.

Sequence of IDH1 R132H (O75874 whole entry R132H): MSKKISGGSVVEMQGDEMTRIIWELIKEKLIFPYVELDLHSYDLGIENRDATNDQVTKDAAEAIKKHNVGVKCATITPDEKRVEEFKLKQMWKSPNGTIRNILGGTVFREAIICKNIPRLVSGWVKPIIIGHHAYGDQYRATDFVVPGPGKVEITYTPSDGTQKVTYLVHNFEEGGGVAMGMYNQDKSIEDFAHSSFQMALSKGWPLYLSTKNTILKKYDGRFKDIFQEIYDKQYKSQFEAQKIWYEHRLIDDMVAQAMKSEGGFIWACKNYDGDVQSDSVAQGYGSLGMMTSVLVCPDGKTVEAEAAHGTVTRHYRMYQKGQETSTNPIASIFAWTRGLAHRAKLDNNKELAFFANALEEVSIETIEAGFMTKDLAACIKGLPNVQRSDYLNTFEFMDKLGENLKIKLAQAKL

As for `C=CC(=O)N1CCC=C(c2c(C3CC3)nc(N3CCN(C(=O)C[C@H]4CCO4)[C@H](C4CC4)C3)c(C#N)c2C)C1` [Compound 789, 5-(1-acryloyl-1,2,5,6-tetrahydropyridin-3-yl)-6-cyclopropyl-2-((R)-3-cyclopropyl-4-(2-((R)-oxetan-2-yl)acetyl)piperazin-1-yl)-4-methylnicotinonitrile], the IC50 in experiment [1] (setting [4]) is under 0.5 µM; in experiment [2] (setting [5]) it was under 0.5 µM; in experiment [3] it was under 500 nM.

For `COCCC(=O)N1CCN(c2nc(C3CC3)c(Nc3cc(C#N)ccn3)cc2C#N)C[C@H]1C1CC1` [Compound 792, (R)-5-(4-cyanopyridin-2-ylamino)-6-cyclopropyl-2-(3-cyclopropyl-4-(3-methoxypropanoyl)piperazin-1-yl)nicotinonitrile], the IC50 in experiment [1] (setting [4]) is 1 to 10 µM; in experiment [2] (setting [5]) it was 1 to 10 µM; in experiment [3] it was under 500 nM.

`C=Cc1cnnc(-c2c(C3CC3)nc(N3CCN(C(=O)C[C@H]4CCO4)[C@H](C(C)C)C3)c(C#N)c2C)c1` [Compound 793, 6-cyclopropyl-2-((R)-3-isopropyl-4-(2-((R)-oxetan-2-yl)acetyl)piperazin-1-yl)-4-methyl-5-(5-vinylpyridazin-3-yl)nicotinonitrile]: the figures for the half-inhibitory concentration (IC50) in experiment [1] (setting [4]), in experiment [2] (setting [5]) and in experiment [3] were under 0.5 µM, under 0.5 µM and under 500 nM, respectively.

For the molecule `C=Cc1cc(-c2cc(C#N)c(N3CCN(C(=O)CC[C@@H]4CCO4)[C@H](C4CC4)C3)nc2C2CC2)ccn1` [Compound 794, 2-cyclopropyl-6-((R)-3-cyclopropyl-4-(3-((R)-oxetan-2-yl)propanoyl)piperazin-1-yl)-2′-vinyl-[3,4′-bipyridine]-5-carbonitrile], the IC50 in experiment [1] (setting [4]) was under 0.5 µM; in experiment [2] (setting [5]), under 0.5 µM; in experiment [3] it was under 500 nM.

Regarding `C=Cc1cc(-c2c(C3CC3)nc(N3CCN(C(=O)CCc4ccco4)[C@H](C4CC4)C3)c(C#N)c2C)ccn1` [Compound 796, (R)-2-cyclopropyl-6-(3-cyclopropyl-4-(3-(furan-2-yl)propanoyl)piperazin-1-yl)-4-methyl-2′-vinyl-3,4′-bipyridine-5-carbonitrile], the IC50 in experiment [1] (setting [4]) was under 0.5 µM; in experiment [2] (setting [5]), under 0.5 µM; in experiment [3] it was under 500 nM.

In the case of `C=Cc1cc(-c2c(C3CC3)nc(N3CCN(C(=O)CCC4CCCC4)[C@H](C4CC4)C3)c(C#N)c2C)ccn1` [Compound 797, (R)-6-(4-(3-cyclopentylpropanoyl)-3-cyclopropylpiperazin-1-yl)-2-cyclopropyl-4-methyl-2′-vinyl-3,4′-bipyridine-5-carbonitrile], the results for the IC50 in experiment [1] (setting [4]), in experiment [2] (setting [5]) and in experiment [3] were under 0.5 µM, under 0.5 µM and under 500 nM, respectively.

For the molecule `C=Cc1cc(Nc2c(C3CC3)nc(N3CCN(C(=O)CCO)[C@H](C(C)C)C3)c(C#N)c2C)ccn1` [Compound 799, (R)-6-cyclopropyl-2-(4-(3-hydroxypropanoyl)-3-isopropylpiperazin-1-yl)-4-methyl-5-((2-vinylpyridin-4-yl)amino)nicotinonitrile], the IC50 in experiment [1] (setting [4]) is under 0.5 µM; in experiment [2] (setting [5]), under 0.5 µM; in experiment [3], under 500 nM.

With `C=Cc1cc(-c2cc(C#N)c(N3CCN(C(=O)CCC4CCCO4)[C@H](C4CC4)C3)nc2C2CC2)ccn1` (stereo partly drawn) [Compound 800, 2-cyclopropyl-6-((3R)-3-cyclopropyl-4-(3-(tetrahydrofuran-2-yl)propanoyl)piperazin-1-yl)-2′-vinyl-3,4′-bipyridine-5-carbonitrile], the IC50 in experiment [1] (setting [4]) was under 0.5 µM; in experiment [2] (setting [5]) it was under 0.5 µM; in experiment [3] it was under 500 nM.

Take `C=Cc1cc(-c2cc(C#N)c(N3CCN(C(=O)CC4CCCO4)[C@H](C4CC4)C3)nc2C2CC2)ccn1` (stereo partly drawn) [Compound 801, 2-cyclopropyl-6-((3R)-3-cyclopropyl-4-(2-(tetrahydrofuran-2-yl)acetyl)piperazin-1-yl)-2′-vinyl-[3,4′-bipyridine]-5-carbonitrile]: the IC50 was under 0.5 µM in experiment [1] (setting [4]), under 0.5 µM in experiment [2] (setting [5]) and under 500 nM in experiment [3].

`C=Cc1cc(-c2c(C3CC3)nc(N3CCN(C(=O)CCC4CCO4)[C@H](C4CC4)C3)c(C#N)c2C)ccn1` (stereo partly drawn) [Compound 803, 2-cyclopropyl-6-((3R)-3-cyclopropyl-4-(3-(oxetan-2-yl)propanoyl)piperazin-1-yl)-4-methyl-2′-vinyl-[3,4′-bipyridine]-5-carbonitrile]: the IC50 in experiment [1] (setting [4]) was under 0.5 µM; in experiment [2] (setting [5]) it was under 0.5 µM; in experiment [3], under 500 nM.

As for `C=Cc1cc(-c2cc(C#N)c(N3CCN(C(=O)CCCOP(=O)(OC(C)(C)C)OC(C)(C)C)[C@H](C4CC4)C3)nc2C2CC2)ccn1` [Compound 804, (R)-di-tert-butyl 4-(4-(5-cyano-2-cyclopropyl-2′-vinyl-3,4′-bipyridin-6-yl)-2-cyclopropylpiperazin-1-yl)-4-oxobutyl phosphate], the figures for the IC50 in experiment [1] (setting [4]), in experiment [2] (setting [5]) and in experiment [3] were 0.5 to 1 µM, under 0.5 µM and under 500 nM, respectively.

With `C=Cc1cc(-c2c(C3CC3)nc(N3CCN(C(=O)CC4CCCO4)[C@H](C4CC4)C3)c(C#N)c2C)ccn1` (stereo partly drawn) [Compound 805, 2-cyclopropyl-6-((3R)-3-cyclopropyl-4-(2-(tetrahydrofuran-2-yl)acetyl)piperazin-1-yl)-4-methyl-2′-vinyl-[3,4′-bipyridine]-5-carbonitrile], the IC50 in experiment [1] (setting [4]) was under 0.5 µM; in experiment [2] (setting [5]), under 0.5 µM; in experiment [3], under 500 nM.

For `C=Cc1cc(-c2c(C3CC3)nc(N3CCN(C(=O)CC4CCC(=O)O4)[C@H](C4CC4)C3)c(C#N)c2C)ccn1` (stereo partly drawn) [Compound 806, 2-cyclopropyl-6-((3R)-3-cyclopropyl-4-(2-(5-oxotetrahydrofuran-2-yl)acetyl)piperazin-1-yl)-4-methyl-2′-vinyl-[3,4′-bipyridine]-5-carbonitrile], the figures for the IC50 in experiment [1] (setting [4]), in experiment [2] (setting [5]) and in experiment [3] were under 0.5 µM, under 0.5 µM and under 500 nM, respectively.

Regarding `C=Cc1cc(-c2cc(C#N)c(N3CCN(C(=O)CCOP(=O)(O)O)[C@H](C4CC4)C3)nc2C2CC2)ccn1` [Compound 810, Sodium (R)-3-(4-(5-cyano-2-cyclopropyl-2′-vinyl-[3,4′-bipyridin]-6-yl)-2-cyclopropylpiperazin-1-yl)-3-oxopropyl phosphate], the concentration for half-maximal inhibition (IC50) in experiment [1] (read-out: U87R132H IC50 (μM)) was under 0.5 µM; in experiment [2] (HT-1080, read-out: HT1080 IC50 (μM)) it was under 0.5 µM; in experiment [3], 500 to 1000 nM.

As for `C=Cc1cc(-c2c(C3CC3)nc(N3CCN(C(=O)CN4CCC4=O)[C@H](C4CC4)C3)c(C#N)c2C)ccn1` [Compound 811], the IC50 in experiment [1] (setting [4]) is under 0.5 µM; in experiment [2] (setting [5]) it was under 0.5 µM; in experiment [3] it was under 500 nM.

In the case of `C=Cc1ccnc(Nc2cc(C#N)c(N3CCN(C(=O)CCC4CCO4)[C@H](C4CC4)C3)nc2C2CC2)c1` (stereo partly drawn) [Compound 812, 6-cyclopropyl-2-((3R)-3-cyclopropyl-4-(3-(oxetan-2-yl)propanoyl)piperazin-1-yl)-5-((4-vinylpyridin-2-yl)amino)nicotinonitrile], the IC50 was under 0.5 µM in experiment [1] (setting [4]), under 0.5 µM in experiment [2] (setting [5]) and under 500 nM in experiment [3].

In the case of `C=Cc1ccnc(Nc2cc(C#N)c(N3CCN(C(=O)CC4CCCO4)[C@H](C4CC4)C3)nc2C2CC2)c1` (stereo partly drawn) [Compound 813, 6-cyclopropyl-2-((3R)-3-cyclopropyl-4-(2-(tetrahydrofuran-2-yl)acetyl)piperazin-1-yl)-5-((4-vinylpyridin-2-yl)amino)nicotinonitrile], the half-maximal inhibitory concentration (IC50) is under 0.5 µM in experiment [1] (setting [4]), under 0.5 µM in experiment [2] (setting [5]) and under 500 nM in experiment [3].
